{
  "source": "patent US12496357B2",
  "about": "“Compositions and methods for treating sickle cell disease” (Yale University, priority 2019, dated 2025)",
  "key": {"[1]": {"system": "SCD mutation (β-globin gene), bulk mouse bone marrow cells", "experiment": "SCD gene correction by ddPCR of gDNA, bulk bone marrow cells treated ex vivo", "format": "cell-based", "conditions": "for effect of DNA repair modulator on editing vs NP only: PLA-HPG nanoparticles encapsulating tcPNA 2 or sertcPNA 2; for effect of added factor on gene editing frequencies by ddPCR: bulk bone marrow and HSPCs (lin−) treated with tcPNA 2 nanoparticles, particularly in HSPCs", "method": "Bulk mouse bone marrow cells were treated with PLGA NPs encapsulating tcPNA 1A, 2A, 3A and correcting donor DNA molecules.\nBulk bone marrow cells were treated with PLGA NPs encapsulating modified (tc PNA 2A) and unmodified versions (tc PNA 2) of PNA sequence. 72 hours after treatment, gDNA was isolated and analyzed for editing frequencies by ddPCR.\n(§1) Bulk bone marrow cells were treated with PLGA NPs encapsulating unmodified PNA (tcPNA 2). 72 hours after treatment HSPCs, were isolated from bulk cells via negative and positive selection, and gene editing all three populations was compared.\n(§2) Bulk bone marrow and HSPCs (lin^−) were treated with tcPNA 2 nanoparticles and combinations of stem cell factor, erythropoietin, and plerixafor. 72 hours after treatment, gDNA was isolated and analyzed for editing frequencies by ddPCR.\nBulk bone marrow cells were treated with tcPNA 2 encapsulated into poly(lactic-co-glycolic acid) (PLGA), or poly(lactic acid)PLA-HPG.\nNanoparticles made from poly(lactic acid) (PLA) conjugated to hyperbranched polyglycerols (HPG), referred to as PLA-HPG, were synthesized using a double emulsion solvent evaporation protocol. Briefly, 50 mg of PLA-HPG was dissolved in 2.4 mL of ethyl acetate and 0.6 mL of DMSO. PNA and donor DNA were heated to 60° C. for 10 minutes, mixed, and immediately added dropwise to the polymer solution under vortex. This 1st emulsion (water-in-oil) was sonicated 3 times at 38% amplitude for 10 seconds using a probe sonicator. Following sonication, the primary emulsion was added dropwise to 4 mL of diH2O, forming the second emulsion (water-in-oil-in-water), which was subsequently sonicated as above. Nanoparticles were further diluted in 20 mL of diH2O. Residual organic solvent was removed using a rotovap. After solvent removal, nanoparticles were collected via centrifugation in Amicon 100K filter tubes. Following a second washing step, nanoparticles were resuspended in diH2O, frozen, and stored as 100 μl aliquots containing 2 mg of nanoparticles. Where indicated, low molecular weight PLA-HPG (P7H9-2) or high molecular weight PLA-HPG (P7H3-18) was used.\nBulk bone marrow cells were treated with PLGA or PLA-HPG nanoparticles encapsulating unmodified (tcPNA 2) and serine modified (^sertcPNA 2) along with correcting donor DNA molecules.\nExperiments were designed to test the effects of DNA repair inhibition on gene editing. Bulk bone marrow cells were treated with PLA-HPG nanoparticles encapsulating tcPNA 2 or ^sertcPNA 2, with or without the addition of small molecule modulators of DNA repair: RS-1, RI-1, RI-2, B0-2, or SCR-7."}, "[2]": {"system": "SCD mutation (β-globin gene), CD117+ HSPCs", "experiment": "SCD gene correction by ddPCR of gDNA, CD117+ HSPCs", "format": "cell-based, mouse", "method": "Bulk bone marrow cells were treated with PLGA NPs encapsulating tcPNA 1A, 2A, 3A and correcting donor DNA molecules. 72 hours after treatment, HSPCs were isolated by CD117+ selection. gDNA was harvested from these cells and assayed for gene correction via ddPCR.\nas §1"}, "[3]": {"system": "Primary mouse bone marrow cells", "experiment": "Cytokine expression in primary mouse bone marrow cells after NP treatment", "format": "cell-based", "conditions": "PLGA NPs encapsulating tcPNA 1A and correcting donor DNA; 48 hours after treatment", "method": "The toxicity and safety of PNA/donor DNA delivery using nanoparticles were investigated. Primary mouse bone marrow cells were treated with PLGA nanoparticles (NPs) encapsulating tcPNA 1A and correcting donor DNA. 48 hours after treatment cells were spun, media collected, and assayed for cytokine expression."}, "[4]": {"system": "SCD mutation (β-globin gene), HSPCs (lin−)", "experiment": "SCD gene correction by ddPCR of gDNA, HSPCs (lin−) isolated via negative selection", "format": "cell-based, mouse", "conditions": "PLGA NPs encapsulating tcPNA 2; 72 hours; comparison of three cell populations", "method": "as §1, §2"}, "Berk hemizygous mice": {"system": "Berk hemizygous mice", "experiment": "In vivo gene editing in Berk hemizygous mice treated with nanoparticles", "set-up": "species or system mouse", "conditions": "nanoparticles encapsulating tcPNA 2 and donor DNA, intravenous", "description": "Experiments were designed to test the ability of tcPNA 2 to drive gene editing in vivo.\nBerk hemizygous mice treated with nanoparticles encapsulating unmodified SCD-tcPNA 2: H-KKK-TTJJTJT-OOO-[…]-KKK-NH2 (SEQ ID NO:5) K indicates lysine; J, pseudoisocytosine (for C) for pH-independent triplex formation. O, 8-amino-2,6,10-trioxaoctanoic acid linkers connecting the Hoogsteen and Watson-Crick domains of the tcPNAs, serine modified bases (bold and underlined) along the Watson-Crick domain and donor DNA: […]"}, "[5]": {"system": "double-stranded DNA target (200 bp)", "experiment": "PNA incubation with double-stranded DNA target, triplex band", "format": "binding", "conditions": "unmodified tcPNA 2 vs modified tcPNA 2A; both temperature conditions", "method": "Modified (tcPNA 2A) and unmodified (tcPNA 2) PNAs were incubated with a double-stranded DNA target (200 bp) at indicated temperatures."}, "[6]": {"conditions": "bulk bone marrow cells, 1 uM dose"}, "[7]": {"conditions": "bulk bone marrow cells, 10 uM dose"}, "[8]": {"conditions": "PLGA NPs encapsulating tcPNA 2, 72 hours, comparison of three cell populations"}},
  "data": [
    {"compound": "O=C(Nc1ccc(Br)cc1)c1ccc(Br)c(S(=O)(=O)NCc2ccccc2)c1", "note": "[RS-1]", "values": [
      {"measurement": "effect of DNA repair modulator on editing vs NP only", "setting": "[1]; [6]", "result": "reduced editing frequencies"},
      {"measurement": "effect of DNA repair modulator on editing vs NP only", "setting": "[1]; [7]", "result": "higher levels of editing"}
    ]},
    {"compound": "c1cc(CN2CCCNCCNCCCNCC2)ccc1CN1CCCNCCNCCCNCC1", "note": "[Plerixafor, plerixafor]", "values": [
      {"measurement": "effect of added factor on gene editing frequencies by ddPCR", "setting": "[1]; 72 hours", "result": "increased gene editing frequencies"}
    ]},
    {"compound": "SCF: stem cell factor, C-kit ligand", "values": [
      {"measurement": "effect of added factor on gene editing frequencies by ddPCR", "setting": "[1]; 72 hours", "result": "increased gene editing frequencies"}
    ]},
    {"compound": "tcPNA 2A: SEQ ID NO:5 tail-clamp PNA with alternating mini-PEG modified bases along the Watson-Crick domain (TTNNTNTTCTCCTTAAACCTGTCTT; alternating gamma mini-PEG modified PNA units, chemistry not fully specified)", "values": [
      {"measurement": "level of gene editing as measured by ddPCR (SCD gene correction)", "setting": "[2]; CD117+ HSPCs isolated 72 hours after treatment, PLGA NPs encapsulating tcPNA 1A, 2A, 3A and donor DNA, compared with each other", "result": "highest level of gene editing"},
      {"measurement": "level of gene editing as measured by ddPCR (SCD gene correction)", "setting": "[1]; bulk mouse bone marrow cells, PLGA NPs encapsulating tcPNA 1A, 2A, 3A and donor DNA, compared with each other", "result": "highest level of gene editing"}
    ]},
    {"compound": "O=c1c2ccccc2nc(/C=C/c2cccnc2)n1Cc1ccccc1", "note": "[B0-2]", "values": [
      {"measurement": "gene editing frequencies", "setting": "[1]; bulk bone marrow cells, PLA-HPG nanoparticles encapsulating tcPNA 2 or sertcPNA 2, with or without modulator of DNA repair", "result": "~12", "unit": "%"}
    ]},
    {"compound": "O=c1[nH]c(=S)[nH]c(N=Cc2ccccc2)c1N=Cc1ccccc1", "note": "[SCR-7]", "values": [
      {"measurement": "effect of DNA repair modulator on editing vs NP only", "setting": "[1]; [6]", "result": "decreased PNA-mediated gene editing"},
      {"measurement": "effect of DNA repair modulator on editing vs NP only", "setting": "[1]; [7]", "result": "decreased PNA-mediated gene editing"}
    ]},
    {"compound": "O=C1C(Cl)=C(N2CCOCC2)C(=O)N1c1ccc(Cl)c(Cl)c1", "note": "[RI-1]", "values": [
      {"measurement": "effect of DNA repair modulator on editing vs NP only", "setting": "[1]; [6]", "result": "higher levels of editing"},
      {"measurement": "effect of DNA repair modulator on editing vs NP only", "setting": "[1]; [7]", "result": "reduced levels"}
    ]},
    {"compound": "tcPNA 1A: SEQ ID NO:14 tail-clamp PNA with alternating mini-PEG modified bases along the Watson-Crick domain (NNTNTTNCTTCTCCACAGGAGTCAG; alternating gamma mini-PEG modified PNA units, chemistry not fully specified)", "values": [
      {"measurement": "inflammatory cytokine expression", "setting": "[3]", "result": "did not produce inflammatory cytokine expression"}
    ]},
    {"compound": "^sertcPNA 2: tc PNA 2 sequence (SEQ ID NO:5) modified with a hydroxymethyl (serine) group at the γ position along the Watson-Crick domain (TTNNTNTTCTCCTTAAACCTGTCTT; gamma-serine (hydroxymethyl) modified PNA backbone, chemistry not fully specified)", "values": [
      {"measurement": "gene editing relative to unmodified tcPNA 2", "setting": "[1]; bulk bone marrow cells, PLGA or PLA-HPG nanoparticles with donor DNA, even at lower NP doses", "result": "increased gene editing appreciably"}
    ]},
    {"compound": "lys-lys-lys-TTJJTJT-OOO-TCTCCTTAAACCTGTCTT-lys-lys-lys (SEQ ID NO:5) (TTNNTNTTCTCCTTAAACCTGTCTT; PNA, lysine ends, OOO linker, chemistry not fully specified) [tcPNA 2, tail-clamp PNA oligomer targeting the β-globin gene]", "values": [
      {"measurement": "gene editing by ddPCR, HSPCs isolated via negative selection", "setting": "[4]", "result": "highest levels of editing"},
      {"measurement": "gene editing in vivo", "setting": "Berk hemizygous mice", "result": "can Drive Gene Editing In Vivo"},
      {"measurement": "gene editing by ddPCR, CD117+ population", "setting": "[2]; [8]", "result": "appreciable editing"},
      {"measurement": "invasion of duplex DNA (triplex band)", "setting": "[5]", "result": "superior invasion of duplex DNA"},
      {"measurement": "gene editing by ddPCR, bulk population", "setting": "[1]; [8]", "result": "appreciable editing"},
      {"measurement": "level of editing (correction of the SCD mutation) by ddPCR", "setting": "[1]; bulk bone marrow cells, PLGA NPs, unmodified tcPNA 2 vs mini-PEG modified tcPNA 2A, 72 hours", "result": "highest level of editing"}
    ]}
  ]
}
